In PubChem BioAssay AID248 (DTP/NCI, 2004) one finds T/C data, which are given here for 24 compounds.

Where “and” joins values, the source holds several entries; their conditions need not be identical. Equal values may be shown once. Inconclusive results and toxic doses are left out.

For this assay, the system named is L1210 leukemia ip in BDF1 mice, survival T/C. In words: NCI In Vivo Anticancer Drug Screen. Data for tumor model L1210 Leukemia (intraperitoneal) in B6D2F1 (BDF1) mice. Conditions: endpoint: mean survival time, higher = longer survival. The gist of the method: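 Mice bearing the transplanted tumor received compound or vehicle. Survival of the treated group was divided by that of the vehicle-treated control group to give the ratio.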

The mark [1] stands for this setting: dose: 100.0 mg/kg/injection, schedule: Q01DX009 (ip), vehicle: Klucel (hydroxypropylcellulose) (HPC).
[2] abbreviates: dose: 100.0 mg/kg/injection, schedule: Q04DX003 (ip), vehicle: Klucel (hydroxypropylcellulose) (HPC).
The mark [3] stands for this setting: dose: 200.0 mg/kg/injection, schedule: Q01DX009 (ip), vehicle: Klucel (hydroxypropylcellulose) (HPC).
The mark [4] stands for this setting: dose: 200.0 mg/kg/injection, schedule: Q04DX003 (ip), vehicle: Klucel (hydroxypropylcellulose) (HPC).
[5] abbreviates: dose: 400.0 mg/kg/injection, schedule: Q01DX009 (ip), vehicle: Klucel (hydroxypropylcellulose) (HPC).
The mark [6] stands for this setting: dose: 400.0 mg/kg/injection, schedule: Q04DX003 (ip), vehicle: Klucel (hydroxypropylcellulose) (HPC).
Setting [7] is: dose: 50.0 mg/kg/injection, schedule: Q01DX001 (ip), vehicle: carboxymethylcellulose (CMC).
Where [8] appears, read: dose: 100.0 mg/kg/injection, schedule: Q01DX001 (ip), vehicle: carboxymethylcellulose (CMC).
[9] abbreviates: dose: 200.0 mg/kg/injection, schedule: Q01DX001 (ip), vehicle: carboxymethylcellulose (CMC).
Where [10] appears, read: dose: 400.0 mg/kg/injection, schedule: Q01DX001 (ip), vehicle: carboxymethylcellulose (CMC).
Setting [11] is: dose: 50.0 mg/kg/injection, schedule: Q04DX002 (ip), vehicle: saline with Tween-80.
The mark [12] stands for this setting: dose: 100.0 mg/kg/injection, schedule: Q04DX002 (ip), vehicle: saline with Tween-80.
[13] abbreviates: dose: 200.0 mg/kg/injection, schedule: Q04DX002 (ip), vehicle: saline with Tween-80.
Setting [14] is: dose: 50.0 mg/kg/injection, schedule: Q01DX009 (ip), vehicle: Klucel (hydroxypropylcellulose) (HPC).

In the case of `ClCCCCCCCCCCCl`, the T/C was 94 % of control and 97 % of control under setting [1]; 97 % of control under setting [2]; 94 % of control and 102 % of control under setting [3]; 92 % of control under setting [4]; 92 % of control under setting [5]; 99 % of control under setting [6].
On to `CN(CCCN)CCCN`, for which the T/C is 115 % of control (dose: 25.0 mg/kg/injection, schedule: Q04DX002 (ip), vehicle: saline); 96 % of control (dose: 50.0 mg/kg/injection, schedule: Q04DX002 (ip), vehicle: saline); 100 % of control and 104 % of control (dose: 100.0 mg/kg/injection, schedule: Q04DX002 (ip), vehicle: saline).
For the compound `CC1(C)C2CC3C(C(=O)O)C(C(=O)O)CCC3(C2)C1OC=O` (stereo not given), the T/C is 99 % of control under setting [2], 92 % of control under setting [4] and 103 % of control under setting [6].
For the compound `COC(=O)CC(C)C(C)(C)[N+](=O)[O-]` (stereo not given), the T/C (dose: 50.0 mg/kg/injection, schedule: Q01DX009 (ip), vehicle: saline with Tween-80) was 92 % of control; the T/C (dose: 100.0 mg/kg/injection, schedule: Q01DX009 (ip), vehicle: saline with Tween-80) is 92 % of control; the T/C (dose: 200.0 mg/kg/injection, schedule: Q01DX009 (ip), vehicle: saline with Tween-80) is 92 % of control.
Consider `Cc1ccc(/C(=C/c2ccc([N+](=O)[O-])cc2)C(=O)O)cc1`, for which the T/C by setting is: under setting [2], 102 % of control; under setting [4], 98 % of control; under setting [6], 95 % of control.
On to `O=C(O)C(CSC(c1ccccc1)(c1ccccc1)c1ccccc1)N=Cc1ccccc1O` (stereo not given), for which the T/C reads like this: (dose: 267.0 mg/kg/injection, schedule: Q01DX001 (ip), vehicle: saline) 154 % of control; (dose: 600.0 mg/kg/injection, schedule: Q01DX001 (ip), vehicle: saline) 154 % of control.
Regarding `O=C(O)CC1=C(O)c2ccccc2C(=O)C1=O`, the T/C reads like this: (dose: 100.0 mg/kg/injection, schedule: Q01DX001 (ip), vehicle: water) 97 % of control; (dose: 200.0 mg/kg/injection, schedule: Q01DX001 (ip), vehicle: water) 103 % of control; (dose: 400.0 mg/kg/injection, schedule: Q01DX001 (ip), vehicle: water) 97 % of control.
In the case of `CCOC(=O)CC(=O)C1CCCCC1`, the T/C was 95 % of control under setting [7], 95 % of control under setting [8], 97 % of control under setting [9] and 95 % of control under setting [10].
Turning to `CCCCCCCCCCCCCC(=O)OCCC(C)C`, the T/C was 105 % of control (dose: 222.0 mg/kg/injection, schedule: Q01DX Z (ip), vehicle: saline); 95 % of control (dose: 333.0 mg/kg/injection, schedule: Q01DX Z (ip), vehicle: saline); 102 % of control (dose: 500.0 mg/kg/injection, schedule: Q01DX Z (ip), vehicle: saline).
`NC(=S)c1cccc(OCCc2ccccc2)c1`: the T/C reads like this: (dose: 100.0 mg/kg/injection, schedule: Q01DX001 (ip), vehicle: saline with Tween-80) 97 % of control; (dose: 200.0 mg/kg/injection, schedule: Q01DX001 (ip), vehicle: saline with Tween-80) 102 % of control.
As for `CCCCCCCCOC(=O)c1[nH]cnc1/N=N/N(C)C1CCCCC1`, the T/C (dose: 100.0 mg/kg/injection, schedule: Q01DX001 (ip), vehicle: other) was 93 % of control; the T/C (dose: 200.0 mg/kg/injection, schedule: Q01DX001 (ip), vehicle: other) is 96 % of control; the T/C (dose: 400.0 mg/kg/injection, schedule: Q01DX001 (ip), vehicle: other) is 91 % of control.
For `COc1ccc(CC2(C#N)c3ccccc3C=CN2C(=O)c2ccccc2)c([N+](=O)[O-])c1OC` (stereo not given), the T/C is, setting by setting: under setting [11], 97 % of control; under setting [12], 87 % of control; under setting [13], 97 % of control.
As for `c1ccc(C/C(N=Nc2ccccc2)=N\Nc2ccccc2)cc1`, the T/C is, setting by setting: under setting [14], 92 % of control; under setting [1], 92 % of control; under setting [3], 91 % of control; under setting [5], 105 % of control.
On to `CP1(=O)CCC(=O)C1Br` (stereo not given), for which the T/C is, setting by setting: under setting [11], 98 % of control; under setting [12], 95 % of control; under setting [13], 91 % of control.
With `COc1ccc(C2=NNc3n[nH]c(=S)n3N2)cc1OC`, the T/C is 96 % of control under setting [14], 96 % of control under setting [1] and 112 % of control under setting [3].
For the compound `CC1([N+](=O)[O-])COP(=O)(NCc2ccccn2)OC1` (stereo not given), the T/C reads like this: under setting [7], 107 % of control; under setting [8], 103 % of control; under setting [9], 97 % of control; under setting [10], 103 % of control.
For `CSc1nc2nc(Cl)c(Cl)nc2[nH]1`, the T/C by setting is: (dose: 12.5 mg/kg/injection, schedule: Q01DX009 (ip), vehicle: saline) 105 % of control; (dose: 25.0 mg/kg/injection, schedule: Q01DX009 (ip), vehicle: saline) 102 % of control and 104 % of control; (dose: 50.0 mg/kg/injection, schedule: Q01DX009 (ip), vehicle: saline) 102 % of control; (dose: 100.0 mg/kg/injection, schedule: Q01DX009 (ip), vehicle: saline) 98 % of control; (dose: 100.0 mg/kg/injection, schedule: Q04DX003 (ip), vehicle: saline) 97 % of control; (dose: 200.0 mg/kg/injection, schedule: Q04DX003 (ip), vehicle: saline) 98 % of control. Moreover, for the setting “dose: 400.0 mg/kg/injection, schedule: Q04DX003 (ip), vehicle: saline”, the T/C is 108 % of control.
As to `COc1ncccn1`, the T/C (dose: 75.0 mg/kg/injection, schedule: Q01DX009 (ip), vehicle: saline) was 93 % of control.
For `N#CC(NC(=O)NCCCl)c1ccccc1` (stereo not given), the T/C runs as follows: under setting [2], 104 % of control; under setting [4], 101 % of control.
Regarding `ClB(Cl)c1ccc(Br)cc1`, the T/C was 97 % of control (dose: 100.0 mg/kg/injection, schedule: Q01DX001 (ip), vehicle: saline); 86 % of control (dose: 200.0 mg/kg/injection, schedule: Q01DX001 (ip), vehicle: saline); 95 % of control (dose: 400.0 mg/kg/injection, schedule: Q01DX001 (ip), vehicle: saline).
On to `NOC(=O)C1C(c2ccccc2)C1(c1ccccc1)c1ccccc1` (stereo not given), for which the T/C runs as follows: (dose: 100.0 mg/kg/injection, schedule: Q01DX001 (ip), vehicle: steriod suspending solution) 104 % of control; (dose: 200.0 mg/kg/injection, schedule: Q01DX001 (ip), vehicle: steriod suspending solution) 95 % of control; (dose: 400.0 mg/kg/injection, schedule: Q01DX001 (ip), vehicle: steriod suspending solution) 117 % of control.
For the compound `Nc1ncnc2c1ncn2C1OC(COC2C(CO)OC(OC(C(=O)O)C(O)C(OP(=O)(O)O)C(O)C(=O)O)C(O)C2O)C(O)C1O` (stereo not given), the T/C is 91 % of control (dose: 0.25 mg/kg/injection, schedule: Q04DX002 (ip), vehicle: saline + alcohol); 94 % of control (dose: 0.5 mg/kg/injection, schedule: Q04DX002 (ip), vehicle: saline + alcohol); 98 % of control (dose: 1.0 mg/kg/injection, schedule: Q04DX002 (ip), vehicle: saline + alcohol).
Take `COc1ccc(C(=O)Nc2ccc(C3=NCCN3)cc2)cc1C(=O)Nc1ccc(C2=NCCN2)cc1`: the T/C was 101 % of control (dose: 3.75 mg/kg/injection, schedule: Q01DX Z (ip), vehicle: saline); 116 % of control (dose: 7.5 mg/kg/injection, schedule: Q01DX Z (ip), vehicle: saline); 181 % of control (dose: 30.0 mg/kg/injection, schedule: Q01DX Z (ip), vehicle: saline); 266 % of control (dose: 60.0 mg/kg/injection, schedule: Q01DX Z (ip), vehicle: saline); 110 % of control (dose: 120.0 mg/kg/injection, schedule: Q01DX Z (ip), vehicle: saline).
On to `Cc1nc(Br)c(C(O)c2ccccc2)n1C` (stereo not given), for which the T/C reads like this: under setting [1], 100 % of control and 103 % of control; (dose: 100.0 mg/kg/injection, schedule: Q04DX002 (ip), vehicle: Klucel (hydroxypropylcellulose) (HPC)) 101 % of control and 103 % of control; under setting [2], 93 % of control; under setting [3], 95 % of control and 109 % of control; (dose: 200.0 mg/kg/injection, schedule: Q04DX002 (ip), vehicle: Klucel (hydroxypropylcellulose) (HPC)) 101 % of control and 103 % of control; under setting [4], 97 % of control. Moreover, the T/C by setting is: under setting [5], 95 % of control and 117 % of control; (dose: 400.0 mg/kg/injection, schedule: Q04DX002 (ip), vehicle: Klucel (hydroxypropylcellulose) (HPC)) 98 % of control and 100 % of control; under setting [6], 95 % of control.
